Source: patent publication US12629359B2 (UNIVERSITA' DEGLI STUDI DI BRESCIA, priority 2020, dated 2026)
Entries after “also recorded” stand apart in the source; their conditions may differ.

Key:
[1] = target: T1, alpha-synuclein/Synapsin III interaction (Homo sapiens, UniProt O14994+P37840); assay: Acceptor photobleaching FRET of alpha-synuclein/Synapsin III interaction in neuronal-differentiated SK-N-SH cells; type: cell-based; settings: 10 μM, 15 min; for stimulation of alpha-synuclein/Synapsin III interaction (FRET efficiency), in words: vs basal
T1 construct: expressed in transfected cells; host or cells: neuronal-differentiated (retinoic acid) human SK-N-SH neuroblastoma cells, transient transfection with Lipofectamine 3000
Protocol: The ability of the different compound to stimulate alpha-synuclein/Synapsin III interaction was evaluated by acceptor photobleaching FRET or FLIM in neuronal-like cells. In particular, we used neuronal-differentiated SK—N—SH neuroblastoma cells transiently transfected with red fluorescent protein (RFP)-tagged human wild type alpha-synuclein and green fluorescent protein (GFP)-tagged the human 63 kDa Synapsin III isoform.
Acceptor photobleaching FRET microscopy allows an accurate evaluation of protein-protein interaction through the measurement of FRET efficiency. This parameter is indicative of the increase of donor fluorescence after complete photobleaching of the acceptor fluorescence, within a FRET pair of fluorophores (where the emission wavelength of a donor falls within the excitation wavelength of an acceptor). Since FRET efficiency is detectable only when the two fluorophores are sufficiently close to ensure that their linked proteins are interacting, the molecular proximity of these latter results strictly dependent on this parameter^36,37. […] Human neuroblastoma SK—N—SH cells were grown in complete medium comprising Dulbecco's modified Eagle's medium with 1000 mg glucose/l supplemented with 10% heat-inactivated fetal bovine serum, 100 μg/ml penicillin and 100 μg/ml streptomycin. Cells were maintained at 37° C. under a humidified atmosphere of 5% CO2 and […]. For FRET studies, SK—N—SH cells were seeded onto poli-D-lysine-coated 13 mm glass coverslips in 24-well plates (15000 cells per coverslip) and were maintained in differentiation medium for ten days by daily adding 10 μM retinoic acid to the medium. […] Fixed cells were analyzed by means of a Zeiss confocal laser microscope LSM 880 (Carl Zeiss) with the laser set on A=488-543. After identifying double positive cells three-to-six regions of interest (ROI) were analyzed for 4 series. Two images of basal condition (Pre-bleaching) were acquired before bleaching the RFP acceptor fluorophore with laser 543 set at 65% power. Then, other two images were acquired after the bleaching (Post-bleaching). The FRET efficiency (intended as the GFP recovery after RFP photobleaching) was measured by using Zen black software (Carl Zeiss). The average intensity of the background (outside the cell) was subtracted from the average intensity of the ROI and all the FRET values resulting from the different ROI were used for statistical analysis.
Human neuroblastoma SK—N—SH cells were grown in complete medium comprising Dulbecco's modified Eagle's medium with 1000 mg glucose/l supplemented with 10% heat-inactivated fetal bovine serum, 100 μg/ml penicillin and 100 μg/ml streptomycin. Cells were maintained at 37° C. under a humidified atmosphere of 5% CO2 and […]. For FRET studies, SK—N—SH cells were seeded onto poli-D-lysine-coated 13 mm glass coverslips in 24-well plates (15000 cells per coverslip) and were maintained in differentiation medium for ten days by daily adding 10 μM retinoic acid to the medium. […] Fixed cells were analyzed by means of a Zeiss confocal laser microscope LSM 880 (Carl Zeiss) with the laser set on λ=488-543. After identifying double positive cells three-to-six regions of interest (ROI) were analyzed for 4 series. Two images of basal condition (Pre-bleaching) were acquired before bleaching the RFP acceptor fluorophore with laser 543 set at 65% power. Then, other two images were acquired after the bleaching (Post-bleaching). The FRET efficiency (intended as the GFP recovery after RFP photobleaching) was measured by using Zen black software (Carl Zeiss). The average intensity of the background (outside the cell) was subtracted from the average intensity of the ROI and all the FRET values resulting from the different ROI were used for statistical analysis.

[2] = tested on: primary mesencephalic cultures; assay: MTT cell viability assay; type: cell-based, mouse; settings: 24 h
Protocol: The cytotoxic effect of compounds treatment was measured by evaluating mitochondrial dehydrogenase activity using the MTT salt assay.
Neuronal differentiated SK—N—SH cells were thus exposed to different concentrations of I-threo, IV-threo, I-erythro, V-threo and V-erythro as described above, and then used for the MTT cell viability assay.
Animals: C57BL/6J wt mice (C57BL/6J) (Charles River, Wilmington, MA) used in this study, were bred in our animal house facility at the Department of Molecular and Translational Medicine of University of Brescia. Animals were maintained under a 12h light-dark cycle at a room temperature (rt) of 22° C. and had ad libitum food and water. All experiments were made in accordance to Directive 2010/63/EU of the European Parliament and of the Council of 22 Sep. 2010 on the protection of animals used. All experimental and surgical procedures conformed to the National Research Guide for the Care and Use of Laboratory Animals were approved by the Animal Research Committees of the University of Brescia (Protocol Permit 719/2015-PR). All achievements were made to minimize animal suffering and to reduce the number of animals used. Primary neuronal cultures from mesencephalic tissues were dissected from C57BL/6J 13-days embryos. Briefly, after mechanical dissociation the single cells were re-suspended in Neurobasal medium containing 100 μg/ml penicillin, 100 μg/ml streptomycin, 0.5 mM glutamine and 1% B27 supplement. Cells were then centrifuged and cell count and viability assays were performed using the Trypan Blue exclusion test. Cells were seeded onto poly-D-lysine-coated glass coverslides in 24-well plates (14 μg/mL) for immunocytochemistry (100000 cells/well). Cells were maintained at 37° C. under a humidified atmosphere of 5% CO2 and […] for at least 10 days in vitro (DIV 10) prior to their use to allow their maturation. At DIV 10, cells were treated with increasing concentrations (0.01 μM-0.1 μM-1 μM-[…]) of the different compounds (I-threo, IV-threo, I-erythro, V-threo, VI-threo). Twenty-four h after the treatments, culture medium was removed and 300 μL of MTT 0.5 mg/mL diluted in culture medium was added to each well. After 90′ incubation at 37° C., the medium was removed and 250 μL aliquots of DMSO were added to each well to solubilize the formazan crystals. Absorbance was measured at 570 nm using a microplate reader. Cell viability was expressed as absorbance value.

T1 sequence (O14994 whole entry, one chain of several): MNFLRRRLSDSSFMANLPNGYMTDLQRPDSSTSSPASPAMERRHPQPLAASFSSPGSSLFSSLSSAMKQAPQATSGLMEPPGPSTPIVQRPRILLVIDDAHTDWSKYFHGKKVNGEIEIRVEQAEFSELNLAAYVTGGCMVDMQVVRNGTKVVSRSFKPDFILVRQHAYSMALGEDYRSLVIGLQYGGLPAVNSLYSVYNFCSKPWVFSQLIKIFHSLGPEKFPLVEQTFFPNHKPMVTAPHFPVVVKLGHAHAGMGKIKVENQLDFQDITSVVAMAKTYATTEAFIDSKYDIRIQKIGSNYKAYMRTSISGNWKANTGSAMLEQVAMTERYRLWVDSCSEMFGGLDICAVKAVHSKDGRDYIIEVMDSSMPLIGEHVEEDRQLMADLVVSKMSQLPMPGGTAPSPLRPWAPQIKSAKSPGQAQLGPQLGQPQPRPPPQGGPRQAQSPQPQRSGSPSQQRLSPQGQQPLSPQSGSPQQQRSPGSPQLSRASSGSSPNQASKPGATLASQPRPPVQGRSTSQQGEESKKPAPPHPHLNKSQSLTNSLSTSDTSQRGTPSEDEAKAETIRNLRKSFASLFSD

Row | Compound | stimulation of alpha-synuclein/Synapsin III interaction (FRET efficiency), in words [1] | cell viability (MTT) at 100 μM [2] | % FRET efficiency change vs control untreated cells ([1]; neuronally differentiated SK-N-SH cells) | % FRET efficiency change vs MPH-treated cells ([1]; vs MPH 10 μM) | % FRET efficiency change vs VI-threo-treated cells ([1]; vs VI-threo 10 μM) | cell viability (MTT) at 100 μM ([2]; hydrochloride) | toxic effects (MTT) at the working concentrations ([2]; concentrations reducing aggregation or stimulating interaction)
1 | COC(=O)[C@H](c1ccc(C)cc1)C1CCCCN1.Cl (stereo partly drawn) [I-erythro] | not able to stimulate alpha-synuclein/Synapsin III interaction; also recorded: No significant increase | did not result toxic |  |  |  |  | 
2 | COC(=O)[C@@H](c1ccc(C)cc1)C1CCCCN1.Cl (stereo partly drawn) [I-threo, threo methyl 2-(piperidin-2-yl)-2-(p-tolyl)acetate hydrochloride] | significant increase in the FRET efficiency |  | +8.8% | +5.5% | +5.2% | reduce the cell viability; also recorded: significant decrease in cell viability | did not exhibit toxic effects
